# In patent US6699662B1, “Inhibitors of staphylococcus SarA protein function involved in the expression of staphylococcal virulence factors and the use thereof in treating staphylococcal infections” (priority 1999, dated 2004):
# Tests used:
# [1] = test system: SarA-DNA complex (SarA and ds A1/A2 DNA); settings: for effect of PNA added to the complexed SarA and radiolabeled ds A1/A2 DNA: PNA added to a mixture of SarA and ds A1/A2 DNA
# Experimental: The first tests of potential inhibitors are made using EMSA. Briefly, ^32P-labeled DNA fragments that correspond to the PNA or HP molecules are used as the targets. […] The concentration of SarA required to bind 50% of the DNA fragment is determined empirically. To determine the degree of inhibition, a mixture of SarA and ^32P-labeled DNA that gives 50% free DNA and 50% bound DNA (called 100% in this assay) is titrated with the PNA molecule. The concentration of PNA that reduces the SarA-DNA complex by 50% is the IC50 value. Using this simple, but effective testing procedure, the PNA or HP design is varied with regard to the sequence targeted and the length of PNA or HP molecules.
# The samples were analyzed by standard EMSA and phosphorimaging.
# [2] = test system: A1/A2 oligonucleotide (SarA binding site of the agr locus); test: EMSA of PNA binding to radiolabeled A1/A2 oligonucleotide; design: species or system Staphylococcus aureus
# Excerpt: The present invention also is directed to a method of identifying inhibitors of SarA function involved in the expression of staphylococcal virulence genes comprising: a) contacting a candidate inhibitor with at least one SarA binding site of the agr locus in solution to allow the binding reaction to equilibrate for a sufficient period of time; and b) assessing the binding of said candidate inhibitor to said SarA binding site of the agr locus. (See FIG. 15 for an example of the results of this method.) The method further comprises the addition of SarA to the solution of step a) simultaneously with the inhibitor and the SarA binding site, and then an assessment of the binding affinity of the candidate inhibitor relative to the binding affinity of the SarA to the SarA binding site of the agr locus. Alternatively, the addition of SarA to the solution of step a) is sequentially with the inhibitor and the SarA binding site, and then the assessment of the binding affinity of said candidate inhibitor relative to the binding affinity of said SarA to the SarA binding site of the agr locus. (See FIG. 16 for an example of the results of this method showing the results with and without the addition of SarA.)
# A prototype PNA inhibitor of SarA-agr binding is constructed and tested. […] The complexes were resolved by native gel electrophoresis and detected by phosphorimaging. […]
Substance,"competition with SarA for binding to A1/A2 DNA ([1]; 10 nM dsDNA incubated with PNA (0.750 pM, 7.5, 75, 750 nM) overnight, then 10 nM SarA added, FIG. 16)",effect of PNA added to the complexed SarA and radiolabeled ds A1/A2 DNA [1],"fraction of PNA active in the binding assay ([2]; 20 nM 32P-labeled A1/A2, FIG. 15)","binding / affinity of PNA for the A1/A2 oligonucleotide ([2]; 20 nM 32P-labeled A1/A2, varying PNA concentrations, FIG. 15)"
gly-TCCAATTTTTCTTAACTA-lys [18-mer],able to outcompete SarA for binding to the DNA,the complex changed from the SarA-DNA complex to the PNA-DNA complex,,
"gly-TTTCTTAACTA-lys (N-terminal glycine and C-terminal lysine attached, backbone not given here, further chemistry not given here; listed as Staphylococcus aureus) [PNA-1]",,did not change this complex,"nearly all, if not all",very high
